# Data from BindingDB's records for doi:10.7270/Q27H1H0J (Srmlsc, 2008).
# Target: T1, M1 family aminopeptidase (Plasmodium falciparum (isolate FcB1 / Columbia), UniProt O96935)
# T1 sequence (O96935 whole entry): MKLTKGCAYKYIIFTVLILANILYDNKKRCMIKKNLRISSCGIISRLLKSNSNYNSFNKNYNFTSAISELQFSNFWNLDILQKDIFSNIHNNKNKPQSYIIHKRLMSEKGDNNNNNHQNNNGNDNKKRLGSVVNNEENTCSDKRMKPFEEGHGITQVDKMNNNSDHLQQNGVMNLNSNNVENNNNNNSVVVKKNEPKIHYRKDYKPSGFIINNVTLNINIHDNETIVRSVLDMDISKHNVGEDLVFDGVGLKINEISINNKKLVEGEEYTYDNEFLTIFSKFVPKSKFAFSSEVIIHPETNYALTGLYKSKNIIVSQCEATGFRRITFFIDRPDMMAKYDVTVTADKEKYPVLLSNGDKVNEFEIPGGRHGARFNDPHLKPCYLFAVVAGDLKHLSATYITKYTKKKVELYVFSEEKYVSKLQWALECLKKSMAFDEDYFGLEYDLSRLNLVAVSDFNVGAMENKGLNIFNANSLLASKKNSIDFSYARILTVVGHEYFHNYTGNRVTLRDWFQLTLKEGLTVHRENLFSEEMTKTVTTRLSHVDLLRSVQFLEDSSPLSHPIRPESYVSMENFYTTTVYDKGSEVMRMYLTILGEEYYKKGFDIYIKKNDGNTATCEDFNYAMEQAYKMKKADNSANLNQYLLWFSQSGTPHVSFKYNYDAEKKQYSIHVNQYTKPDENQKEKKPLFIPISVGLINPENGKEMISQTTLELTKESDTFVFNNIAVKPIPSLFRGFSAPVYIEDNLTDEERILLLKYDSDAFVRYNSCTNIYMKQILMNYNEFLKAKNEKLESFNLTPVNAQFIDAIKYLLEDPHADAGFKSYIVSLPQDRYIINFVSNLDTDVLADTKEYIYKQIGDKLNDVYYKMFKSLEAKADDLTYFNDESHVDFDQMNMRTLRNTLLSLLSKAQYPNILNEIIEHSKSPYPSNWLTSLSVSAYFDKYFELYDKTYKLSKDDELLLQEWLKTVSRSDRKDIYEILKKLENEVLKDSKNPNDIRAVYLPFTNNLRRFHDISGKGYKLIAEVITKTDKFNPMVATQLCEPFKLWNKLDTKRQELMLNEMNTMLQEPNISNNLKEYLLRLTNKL
# Test: malaria alanyl aminopeptidase activity blockers – biochemical, fluorogenic H-Leu-NHMec substrate, 1536-well (AID 1445)
row,Structure (SMILES),IC50 [µM]
1,CNC(=S)N/N=C1\C(=O)Nc2ccccc21 [1-methyl-3-[(2-oxoindol-3-yl)amino]thiourea],47.9
2,Cc1cc(C(=O)NN=CC2C=C(Cl)C=C([N+](=O)[O-])C2=O)[nH]n1 (stereo not given) [SMR000414694],52.3
3,O=C(O)COc1ccccc1CN=Nc1ccc(S(=O)(=O)Nc2ccc(Cl)cc2)cc1[N+](=O)[O-] [MLS000774437],38.9
4,Clc1ccc(CN=Nc2nnn[nH]2)cc1,92.8
5,CC(NNC(=O)c1ccccc1O)=C1C(=O)c2ccccc2C1=O [MLS000523164],12.8
6,COc1ccccc1C1CC(c2ccc(Cl)cc2)=Nc2nc(-n3c(O)ccc3O)nn21 (stereo not given) [MLS000040652],31.3
7,CS(=O)(=O)Nc1nc2n(n1)C(c1ccccc1)CC(c1ccc(Br)cc1)=N2 (stereo not given),45.3
8,C#CCOCCOCCOCCNc1nc(N2CCN(C(=O)C(Cc3cc4ccccc4[nH]3)n3cc(C(N)C(C)CC)nn3)CC2)nc(N2CCN(C(=O)C(Cc3cc4ccccc4[nH]3)n3cc(C(N)C(C)CC)nn3)CC2)n1 (stereo not given) [SMR000391068],72
9,"O=C1N=c2ccc(Br)cc2=C1NNc1nnn[nH]1 [5-bromanyl-3-[2-(2H-1,2,3,4-tetrazol-5-yl)hydrazinyl]indol-2-one]",26.5
10,CC(N=Nc1nc(C(=O)O)cs1)c1ccccc1 (stereo not given) [2-[2-(1-phenylethylidene)hydrazinyl]-4-thiazolecarboxylic acid],34.2
11,COc1ccc(-c2c/c(=N\CCCCCC(=O)O)c3cc(C)ccc3o2)cc1 [[2-(4-methoxyphenyl)-6-methyl-chromen-4-ylidene]-(6-oxidanyl-6-oxidanylidene-hexyl)azanium;perchlorate],7.22
12,NC(=NNC=c1ccc(=C2C=CC(=O)C(C(=O)O)=C2)o1)N[N+](=O)[O-] [5-(5-{2-[amino(nitroimino)methyl]carbonohydrazonoyl}-2-furyl)-2-hydroxybenzoic acid],10.2
13,CCc1ccc2oc(-c3ccc(OC)cc3)c/c(=N\c3cccc(C(=O)O)c3)c2c1 [(3-carboxyphenyl)-[6-ethyl-2-(4-methoxyphenyl)-1-benzopyran-4-ylidene]ammonium;tetrafluoroborate],11.9
14,"O=[N+]([O-])c1cc(Br)c(O)c(CN=Nc2nnnn2-c2cccc3ccccc23)c1 [(6E)-2-bromo-6-[[2-(1-naphthalen-1-yltetrazol-5-yl)hydrazinyl]methylidene]-4-nitrocyclohexa-2,4-dien-1-one]",6.79
15,COC1=CC(/C=C(\C#N)c2nc3ccccc3s2)C=C([N+](=O)[O-])C1=O (stereo not given) [MLS000682120],11
16,CCOC1=CC(/C=N/NC(=O)c2cccs2)C=C([N+](=O)[O-])C1=O (stereo not given) [MLS000698505],103
17,"COC1=CC(C=NNC(=O)[C@H](Cc2c[nH]c3ccccc23)NC(=O)OCC(C)C)C=C([N+](=O)[O-])C1=O (stereo partly drawn) [N-[(2S)-3-(1H-indol-3-yl)-1-[[(E)-(3-methoxy-5-nitro-4-oxo-1-cyclohexa-2,5-dienylidene)methyl]hydrazo]-1-oxopropan-2-yl]carbamic acid 2-methylpropyl ester]",12.2
18,CCCCCCC(=O)N(O)c1cc(O)n(-c2ccccc2)c1O [SMR000043985],66.5
19,"CC1=CC([N+](=O)[O-])=CC(/C=N/NC(=O)C2COc3ccccc3O2)C1=O (stereo not given) [N'-[(E)-(5-methyl-3-nitro-6-oxocyclohexa-2,4-dien-1-ylidene)methyl]-2,3-dihydro-1,4-benzodioxine-3-carbohydrazide]",3.05
20,Cc1ccc2c(c1C)Nc1c(c(=O)c1=O)N2 [SMR000459860],48.5
21,CCOC(=O)C1C(=O)C(=Cc2ccc(OCC(=O)O)c(OC)c2)SC1=Nc1ccc(OC)cc1 (stereo not given) [2-[4-[(Z)-[4-ethoxycarbonyl-5-[(4-methoxyphenyl)amino]-3-oxidanylidene-thiophen-2-ylidene]methyl]-2-methoxy-phenoxy]ethanoic acid],87.3
22,COc1ccc(-c2c/c(=N\CCC(=O)O)c3cc(C)ccc3o2)cc1,38.9
23,"COC(=O)CN1C(=O)C2(c3ccccc31)c1c(-c3cccs3)n[nH]c1OC(=N)C2C#N (stereo not given) [methyl (6'-amino-5'-cyano-2-oxo-3'-thien-2-yl-1'H-spiro[indole-3,4'-pyrano[2,3-c]pyrazol]-1(2H)-yl)acetate]",36.7

row,Structure (SMILES),IC50 [µM]
1,O=C(O)Cc1sc(N[N-][CH+]c2ccc(-c3ccc(Cl)c([N+](=O)[O-])c3)o2)nc1O [MLS000689975],54.1
2,Cc1ccc(-c2csc(-n3[nH]c(C)c(N=Nc4ccccc4O)c3=O)n2)cc1,3.37
3,"CCOc1cc(CN=Nc2nc(O)c(CC(=O)O)s2)ccc1OS(=O)(=O)c1ccc(C)cc1 [{2-[(3-ethoxy-4-{[(4-methylphenyl)sulfonyl]oxy}benzylidene)hydrazono]-4-oxo-1,3-thiazolidin-5-yl}acetic acid]",47.8
4,"COC1=CC(C=NNC(=O)C(Cc2c[nH]c3ccccc23)NC(=O)OCC(C)C)C=C([N+](=O)[O-])C1=O (stereo not given) [2-methylpropyl N-[3-(1H-indol-3-yl)-1-[2-[(E)-(3-methoxy-5-nitro-4-oxidanylidene-cyclohexa-2,5-dien-1-ylidene)methyl]hydrazinyl]-1-oxidanylidene-propan-2-yl]carbamate]",16.7
5,C=c1[nH]n(-c2ccc(Cl)c(C(=O)O)c2)c(=O)c1=Cc1ccc(-c2ccc(C(=O)O)cc2)o1 [SMR000312901],2.41
6,Cc1[nH]n(-c2ccccc2)c(=O)c1C=Nc1ccccc1O,12.8
7,"Nc1nnc(CC(=O)N/N=C/C2C=C([N+](=O)[O-])C=C(Br)C2=O)s1 (stereo not given) [2-(5-azanyl-1,3,4-thiadiazol-2-yl)-N'-[(E)-(5-bromanyl-3-nitro-6-oxidanylidene-cyclohexa-2,4-dien-1-ylidene)methyl]ethanehydrazide]",30
8,"O=C1NC(=S)NC(=O)C1N=Nc1cc2c(cc1[N+](=O)[O-])OCO2 [5-[(6-nitro-1,3-benzodioxol-5-yl)hydrazinylidene]-2-sulfanylidene-1,3-diazinane-4,6-dione]",26.9
9,COC(=O)c1ccc(COc2ccccc2CN=Nc2cccc(C(=O)O)c2)cc1 [MLS000775447],47
10,"CC(NNC(=O)c1cc2ccccc2cc1O)=C1C(=O)c2ccccc2C1=O [N-[1-[1,3-bis(oxidanylidene)inden-2-yl]ethylideneamino]-3-oxidanyl-naphthalene-2-carboxamide]",12
11,CCOC(=O)C1C(=O)C(=Cc2ccc(OCC(=O)O)c(OCC)c2)SC1=Nc1ccc(C)cc1 (stereo not given) [(2-ethoxy-4-{[4-(ethoxycarbonyl)-5-[(4-methylphenyl)amino]-3-oxo-2(3H)-thienylidene]methyl}phenoxy)acetic acid],48.6
12,"O=C1Nc2ccccc2SC1C=NCc1ccccc1Cl (stereo not given) [2-{[(2-chlorobenzyl)amino]methylene}-2H-1,4-benzothiazin-3(4H)-one]",5.63
13,COc1ccccc1-c1nnc(SCC(=O)C(C#N)c2nc3ccccc3[nH]2)n1C1CCCCC1 (stereo not given) [SMR000067321],52.2
14,N#CC(C(=O)CSc1nnc(Cc2cccs2)n1C1CCCCC1)c1nc2ccccc2[nH]1 (stereo not given) [MLS000098387],78.9
15,O=C1OC(C(C=Nc2cc(Cl)ccc2O)[N+](=O)[O-])c2ccccc21 (stereo not given) [3-[(E)-2-[(5-chloranyl-2-oxidanyl-phenyl)amino]-1-nitro-ethenyl]-3H-2-benzofuran-1-one],48.8
16,"O=C1C([N+](=O)[O-])=CC=CC1/C=N/NC(=O)C1COc2ccccc2O1 (stereo not given) [N'-[(E)-(5-nitro-6-oxo-1-cyclohexa-2,4-dienylidene)methyl]-2,3-dihydro-1,4-benzodioxin-3-carbohydrazide]",31.4
17,"COC1=CC(/C=C(\C#N)c2nc3ccc(C)cc3[nH]2)C=C([N+](=O)[O-])C1=O (stereo not given) [(2Z,3E)-3-(3-methoxy-5-nitro-4-oxocyclohexa-2,5-dien-1-ylidene)-2-(5-methyl-1,3-dihydrobenzimidazol-2-ylidene)propanenitrile]",16.2
18,"COc1cc(C=Nn2c(O)csc2=S)cc(Br)c1O [3-[[(Z)-(3-bromo-5-methoxy-4-oxo-1-cyclohexa-2,5-dienylidene)methyl]amino]-2-sulfanylidene-4-thiazolidinone]",107
19,O=C(O)c1cccc(NC(=S)NN=Cc2ccccc2OCc2cccc(Br)c2)c1 [SMR000312741],109
20,Cc1c(N2C(=O)C(=O)C(C(=O)c3ccc(Br)cc3)C2c2cccnc2)c(=O)n(-c2ccccc2)n1C (stereo not given) [MLS000724383],38.1
21,O=C1NC(=O)C(N=Nc2cc([N+](=O)[O-])ccc2O)C(=O)N1,11.4
22,CCC(=O)N1N=C(C2C(=O)N(C)C(=O)N(C)C2=O)CC1c1ccccc1 (stereo not given),41.9
